In patent US20240308995A1, “O-GLYCOPROTEIN-2-ACETAMIDO-2-DEOXY-3-D-GLUCOPYRANOSIDASE INHIBITORS” (BIOGEN MA INC., priority 2018, published 2024):
Like-named read-outs stand apart in the source and are kept apart here.

What was measured:
[1] = target: OGA (S400 O-GLCNAC), HEK-293T cells transfected with Tau-V5 (Homo sapiens (Human), UniProt O60502); test: Cellular OGA-Tau MSD Assay; type: cell-based; conditions: HEK-293T cells, Tau-S400-GlcNAc MSD readout
Method in brief: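 HEK-293T cells transfected with OGA and Tau-V5 plasmids were treated overnight at 37° C with a 10-point, 3-fold titration from 1 uM. Lysates went onto V5-antibody MSD plates to capture Tau, probed with a Tau O-GlcNAc antibody and read by electrochemiluminescence; IC50 from a 4-parameter fit.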

[2] = target: Recombinant full length human OGA enzyme (Homo sapiens (Human), UniProt O60502); test: OGA Enzyme Inhibition Biochemical Assay; conditions: 1 nM OGA, 100 μM 4-MUGlcNAc, pH 6.4
Method in brief: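 Full-length recombinant human OGA with fluorogenic 4-MUGlcNAc in McIlvaine buffer pH 6.4, 0.01% BSA; 90 min at room temperature, glycine pH 10 quench, fluorescence Ex 355/Em 460 nm. 10-point, 4-fold dilution from 20 μM; 4-parameter variable-slope fit.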

[3] = Rat Liver Microsome Stability Assay; type: in vitro ADME; conditions: rat liver microsomes, 1 uM compound
P-gp (MDR1) = test: MDR1-MDCK Efflux Ratio Assay; type: in vitro ADME; conditions: dog, read-out: MDR1-MDCK Efflux Ratio (B-A/A-B)
Method: MDR1-MDCK cell monolayers were grown to confluence on microporous polyester membranes in 96-well Corning insert plates. The permeability assay buffer was Hanks' Balanced Salt Solution containing 10 mM HEPES at pH of 7.4. Loperamide (1 μM) was used as a positive control P-gp substrate. Propranolol and Bestatin (1 μM) were used as high and low permeability comparators, respectively. Test compounds or positive control P-gp substrate/permeability comprators were added to respective apical and basolateral chambers for bidirectional assessment of permeability. Receiver buffer (transport buffer supplemented with 1% bovine serum albumin) was added to respective receiver chambers. MDR1-MDCK cells were incubated with test compounds at 37° C. with 5% CO2 for 2 hr. Samples were collected from the donor chamber at both 0 and 120 minutes, and from the receiver chamber at 120 minutes. Test and control compound concentrations were determined using LC-MS/MS analysis. Each determination was performed in triplicate. The apparent permeability (Papp), efflux ratio and mass balance (percent recovery) were calculated as follows: [formula] where: dCr/dt is the cumulative concentration in the receiver compartment versus time in μM s^−1 Vr is the volume of the receiver compartment in cm^3 Vd is the volume of the donor compartment in cm^3 A is the area of the insert (0.143 cm^2 for 96-well insert) CE is the estimated experimental concentration (Time=0) of the dosing solution Cr^final is the concentration of the receiver at the end of the incubation period Cd^final is the concentration of the donor at the end of the incubation period.

[4] = MDCK-MDR1, pH 7.4, MDR1-MDCK cells, 2 hr, pH 7.4

Chain of Recombinant full length human OGA enzyme (O60502 whole entry): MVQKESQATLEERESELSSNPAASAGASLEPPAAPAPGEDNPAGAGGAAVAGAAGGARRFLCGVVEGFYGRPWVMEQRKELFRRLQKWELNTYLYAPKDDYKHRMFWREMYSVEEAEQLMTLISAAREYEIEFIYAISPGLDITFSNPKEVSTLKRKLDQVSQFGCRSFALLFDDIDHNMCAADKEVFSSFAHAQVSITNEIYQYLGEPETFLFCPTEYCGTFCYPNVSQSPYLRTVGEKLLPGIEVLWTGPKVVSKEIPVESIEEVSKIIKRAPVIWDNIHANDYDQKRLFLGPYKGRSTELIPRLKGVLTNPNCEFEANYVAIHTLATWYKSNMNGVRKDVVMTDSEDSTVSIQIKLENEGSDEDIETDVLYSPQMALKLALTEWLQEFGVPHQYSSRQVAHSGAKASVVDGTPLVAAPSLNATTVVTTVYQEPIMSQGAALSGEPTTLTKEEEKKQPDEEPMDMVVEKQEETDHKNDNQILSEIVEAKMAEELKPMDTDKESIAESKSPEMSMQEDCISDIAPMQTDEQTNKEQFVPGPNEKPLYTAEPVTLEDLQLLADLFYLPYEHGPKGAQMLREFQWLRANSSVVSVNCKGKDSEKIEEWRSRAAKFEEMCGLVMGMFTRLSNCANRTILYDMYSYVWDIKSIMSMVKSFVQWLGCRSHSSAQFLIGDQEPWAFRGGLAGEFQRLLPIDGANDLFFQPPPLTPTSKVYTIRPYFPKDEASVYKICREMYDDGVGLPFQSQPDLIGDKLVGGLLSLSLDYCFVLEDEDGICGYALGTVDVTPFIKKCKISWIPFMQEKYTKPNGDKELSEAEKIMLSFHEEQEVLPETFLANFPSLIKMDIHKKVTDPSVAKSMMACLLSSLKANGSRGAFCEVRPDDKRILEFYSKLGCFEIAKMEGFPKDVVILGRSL
Chain of OGA (S400 O-GLCNAC), HEK-293T cells transfected with Tau-V5 (O60502 whole entry): as above

Row | SMILES | IC50 [1] [nM] | IC50 [2] [nM] | RLM % Qh (%) [3] [%] | efflux ratio at 2 h (P-gp (MDR1); [4]) | efflux ratio at 2 h (P-gp (MDR1); MDCK-MDR1, pH 7.4, repeated assay, value marked with asterisk (*))
1 | CC(=O)Nc1nc(F)c(CN2C[C@H](Oc3ncc(Cl)cn3)C[C@@H]2C)s1 [Example 1-95, N-(5-(((2S,4R)-4-((5-chloropyrimidin-2-yl)oxy)-2-methylpyrrolidin-1-yl)methyl)-4-fluorothiazol-2-yl)acetamide] | 1 | < 1 | 72 | 3.6 | –
2 | CC(=O)Nc1nc(F)c(CN2C[C@H](Oc3cnc(N4CCOCC4)cn3)C[C@@H]2C)s1 [Example 1-142, N-(4-fluoro-5-(((2S,4R)-2-methyl-4-((5-morpholinopyrazin-2-yl)oxy)pyrrolidin-1-yl)methyl)thiazol-2-yl)acetamide] | 2 | < 1 | 59 | 8.3 | –
3 | CCOc1cc(O[C@@H]2C[C@H](C)N(Cc3cnc(NC(C)=O)s3)C2)ncn1 [Example 1-126, N-(5-(((2S,4R)-4-((6-ethoxypyrimidin-4-yl)oxy)-2-methylpyrrolidin-1-yl)methyl)thiazol-2-yl)acetamide] | 2 | < 1 | 48 | 3.8 | –
4 | COc1cc(O[C@@H]2C[C@H](C)N(Cc3cnc(NC(C)=O)s3)C2)ncn1 [Example 1-1, N-(5-(((2S,4R)-4-((6-methoxypyrimidin-4-yl)oxy)-2-methylpyrrolidin-1-yl)methyl)thiazol-2-yl)acetamide] | 2 | < 1 | 31 | 4.8 | –
5 | CC(=O)Nc1ncc(CN2CCC[C@@H](Oc3ccc(F)cn3)C2)s1 [Example 1-3, (R)—N-(5-((3-((5-fluoropyridin-2-yl)oxy)piperidin-1-yl)methyl)thiazol-2-yl)acetamide] | 38 | 140 | 82 | 2.3 | 2.2
6 | CC(=O)Nc1ncc(CN2C[C@H](Oc3cc(OC4CCCC4)ncn3)C[C@@H]2C)s1 [Example 1-138, N-(5-(((2S,4R)-4-((6-(cyclopentyloxy)pyrimidin-4-yl)oxy)-2-methylpyrrolidin-1-yl)methyl)thiazol-2-yl)acetamide] | 28 | < 1 | 87 | 2.6 | –
7 | CCN(C)c1cc(O[C@@H]2C[C@H](C)N(Cc3cnc(NC(C)=O)s3)C2)ncn1 [Example 1-132, N-(5-(((2S,4R)-4-((6-(ethyl(methyl)amino)pyrimidin-4-yl)oxy)-2-methylpyrrolidin-1-yl)methyl)thiazol-2-yl)acetamide] | 2 | < 1 | 76 | 19.7 | –
8 | COc1cc(O[C@@H]2CC[C@H](C)N(Cc3sc(NC(C)=O)nc3F)C2)ncn1 [Example 1-35, N-(4-fluoro-5-(((2S,5R)-5-((6-methoxypyrimidin-4-yl)oxy)-2-methylpiperidin-1-yl)methyl)thiazol-2-yl)acetamide] | 2 | < 1 | 92 | 4.3 | –
9 | CC(=O)Nc1ncc(CN2C[C@H](Oc3cc(C)ncc3C)C[C@@H]2C)s1 [Example 1-72, N-(5-(((2S,4R)-4-((2,5-dimethylpyridin-4-yl)oxy)-2-methylpyrrolidin-1-yl)methyl)thiazol-2-yl)acetamide] | 8 | 7.2 | 64 | 55.1 | –
10 | CC(=O)Nc1ncc(CN2C[C@@H](Oc3ccc(F)cn3)C[C@@H]2C)s1 [Example 1-9, N-(5-(((2S,4S)-4-((5-fluoropyridin-2-yl)oxy)-2-methylpyrrolidin-1-yl)methyl)thiazol-2-yl)acetamide] | 32 | 39 | 87 | 1.9 | –
11 | CC(=O)Nc1nc(F)c(CN2C[C@H](Oc3cc(N4CCOCC4)ncn3)C[C@@H]2C)s1 [Example 1-103, N-(4-fluoro-5-(((2S,4R)-2-methyl-4-((6-morpholinopyrimidin-4-yl)oxy)pyrrolidin-1-yl)methyl)thiazol-2-yl)acetamide] | 3 | < 1 | 45 | 15.9 | –
12 | CC(=O)Nc1ncc(CN2C[C@H](Oc3cc(OC(C)C)ncn3)C[C@@H]2C)s1 [Example 1-127, N-(5-(((2S,4R)-4-((6-isopropoxypyrimidin-4-yl)oxy)-2-methylpyrrolidin-1-yl)methyl)thiazol-2-yl)acetamide] | 8 | 1.9 | 62 | 3.1 | –
13 | CC(=O)Nc1ncc(CN2CC[C@@H](Oc3ccc(F)cn3)C2)s1 [Example 1-6, (R)—N-(5-((3-((5-fluoropyridin-2-yl)oxy)pyrrolidin-1-yl)methyl)thiazol-2-yl)acetamide] | 37 | 80 | 40 | 1.7 | –
14 | CC(=O)Nc1ncc(CN2C[C@@H](Oc3ccc(F)cn3)C[C@H]2C)s1 [Example 1-8, N-(5-(((2R,4S)-4-((5-fluoropyridin-2-yl)oxy)-2-methylpyrrolidin-1-yl)methyl)thiazol-2-yl)acetamide] | > 1000 | 460 | 76 | 2.3 | –
15 | CCC(=O)Nc1nc(F)c(CN2CC[C@@H](Oc3cc(OC)ncn3)C2)s1 [Example 1-45, (R)—N-(4-fluoro-5-((3-((6-methoxypyrimidin-4-yl)oxy)pyrrolidin-1-yl)methyl)thiazol-2-yl)propionamide] | 966 | 47 | 61 | 1.7 | –
16 | CC(=O)Nc1nc(F)c(CN2CCC[C@H](Oc3cc(C)nc(C)c3)C2)s1 [Example 1-54, (S)—N-(5-((3-((2,6-dimethylpyridin-4-yl)oxy)piperidin-1-yl)methyl)-4-fluorothiazol-2-yl)acetamide] | 70 | 11 | 78 | 25.4 | –
17 | CC(=O)Nc1ncc(CN2C[C@@H](Oc3cc(C)nc(C)c3)C[C@H]2C)s1 [Example 1-63, N-(5-(((2R,4S)-4-((2,6-dimethylpyridin-4-yl)oxy)-2-methylpyrrolidin-1-yl)methyl)thiazol-2-yl)acetamide] | > 1000 | 420 | 16 | 45.3 | –
18 | COc1cc(O[C@@H]2CCCN(Cc3sc(NC(C)=O)nc3F)C2)ncn1 [Example 1-33, (R)—N-(4-fluoro-5-((3-((6-methoxypyrimidin-4-yl)oxy)piperidin-1-yl)methyl)thiazol-2-yl)acetamide] | 51 | 17 | 65 | 2.9 | –
19 | CC(=O)Nc1ncc(CN2C[C@H](Oc3cc(N4CCCC4)ncn3)C[C@@H]2C)s1 [Example 1-129, N-(5-(((2S,4R)-2-methyl-4-((6-(pyrrolidin-1-yl)pyrimidin-4-yl)oxy)pyrrolidin-1-yl)methyl)thiazol-2-yl)acetamide] | 1 | < 1 | 65 | 25.5 | –
20 | COc1cc(O[C@H]2C[C@@H](C)N(Cc3cnc(NC(C)=O)s3)C2)ncn1 [Example 1-40, N-(5-(((2R,4S)-4-((6-methoxypyrimidin-4-yl)oxy)-2-methylpyrrolidin-1-yl)methyl)thiazol-2-yl)acetamide] | > 1000 | 720 | 20 | 5.3 | –
21 | [2H]C(c1cnc(NC(C)=O)s1)N1C[C@H](Oc2cc(OC)ncn2)C[C@@H]1C (single isomer, unassigned) [Example 1-158] | 3 | < 1 | 29 | 5.2 | –
22 | CC(=O)Nc1ncc(CN2C[C@H](Oc3ccc(F)nc3)C[C@@H]2C)s1 [Example 1-115, N-(5-(((2S,4R)-4-((6-fluoropyridin-3-yl)oxy)-2-methylpyrrolidin-1-yl)methyl)thiazol-2-yl)acetamide] | 2 | < 1 | 54 | 4.7 | –
